In ChEMBL document CHEMBL1123145, “Synthesis of pyrrolizidine alkaloids indicine, intermedine, lycopsamine, and analogues and their N-oxides. Potential antitumor agents” (1985):

Key:
Assay type in all cases: functional, Mus musculus
P388 [1] = test: Number of Survivors determined for antitumor activity against P388 Lymphocytic Leukemia system on day 5 at a dose of 17.5 mg/kg (6 out of 6)
P388 [2] = test: Weight difference observed in survivors treated for antitumor activity against P388 Lymphocytic Leukemia system at a dose of 8.75 mg/kg
P388 [3] = test: Survival rate of the animals determined for antitumor activity against P388 Lymphocytic Leukemia system at a dose of 17.5 mg/kg
P388 [4] = test: Survival rate of the animals determined for antitumor activity against P388 Lymphocytic Leukemia system at a dose of 35 mg/kg
P388 [5] = test: Number of Survivors determined for antitumor activity against P388 Lymphocytic Leukemia system on day 5 at a dose of 35 mg/kg (6 out of 6)
P388 [6] = test: Number of Survivors determined for antitumor activity against P388 Lymphocytic Leukemia system on day 5 at a dose of 70 mg/kg(6 out of 6)
P388 [7] = test: Number of Survivors determined for antitumor activity against P388 Lymphocytic Leukemia system on day 5 at a dose of 8.75 mg/kg(6 out of 6)
P388 [8] = test: Survival rate of the animals determined for antitumor activity against P388 Lymphocytic Leukemia system at a dose of 70 mg/kg
P388 [9] = test: Survival rate of the animals determined for antitumor activity against P388 Lymphocytic Leukemia system at a dose of 8.75 mg/kg
P388 [10] = test: Weight difference observed in survivors treated for antitumor activity against P388 Lymphocytic Leukemia system at a dose of 35 mg/kg
P388 [11] = test: Weight difference observed in survivors treated for antitumor activity against P388 Lymphocytic Leukemia system at a dose of 70 mg/kg
P388 [12] = test: Weight difference observed in survivors treated for antitumor activity against P388 Lymphocytic Leukemia system at a dose of 17.5 mg/kg
P388 [13] = test: Survival rate of the animals determined for antitumor activity against P388 Lymphocytic Leukemia system at a dose of 192 mg/kg
P388 [14] = test: Survival rate of the animals determined for antitumor activity against P388 Lymphocytic Leukemia system at a dose of 24 mg/kg
P388 [15] = test: Weight difference observed in survivors treated for antitumor activity against P388 Lymphocytic Leukemia system at a dose of 96 mg/kg
P388 [16] = test: Survival rate of the animals determined for antitumor activity against P388 Lymphocytic Leukemia system at a dose of 48 mg/kg
P388 [17] = test: Weight difference observed in survivors treated for antitumor activity against P388 Lymphocytic Leukemia system at a dose of 24 mg/kg
P388 [18] = test: Weight difference observed in survivors treated for antitumor activity against P388 Lymphocytic Leukemia system at a dose of 48 mg/kg
P388 [19] = test: Survival rate of the animals determined for antitumor activity against P388 Lymphocytic Leukemia system at a dose of 96 mg/kg

Compound	Survivors (P388 [1])	T-C (P388 [2])	T/C (P388 [3]) [%]	T/C (P388 [4]) [%]	Survivors (P388 [5])	Survivors (P388 [6])	Survivors (P388 [7])	T/C (P388 [8]) [%]	T/C (P388 [9]) [%]	T-C (P388 [10])	T-C (P388 [11])	T-C (P388 [12])	T/C (P388 [13]) [%]	T/C (P388 [14]) [%]	T-C (P388 [15])	T/C (P388 [16]) [%]	T-C (P388 [17])	T-C (P388 [18])	T/C (P388 [19]) [%]
O=C(OCC1=CC[N+]2([O-])CC[C@@H](O)C12)c1ccccc1 (some centres undefined)	6	-0.4	110	109	6	6	6	118	107	-0.1	-1	-0.7	–	–	–	–	–	–	–
CC(C)C(O)(C(=O)OCC1=CC[N+]2([O-])CC[C@@H](O)C12)C(C)O (stereo in doubt; form 1)	–	–	–	–	–	–	–	–	–	–	–	–	123	107	-0.3	114	0	-0.6	114
